Experiment [1] concerns FGF21 binding to FGFR isoforms 1c, 2c, 3c, 4. The experiment in a line: Pull-down and plate binding of FGF21 to FGFR isoforms with sKL or heparin. On the set-up: species or system human. The protocol: To study the interaction between Fc-tagged FGFR isoforms (Fc-FGFR), FGF isoforms, and sKL, immunoprecipitation studies were conducted. Protein A beads (6501, BioVision) and protein G beads (6511, BioVision) were used at 25 μl of a 50% stock slurry per sample in a total bead volume of 50 μl. Beads were washed 5× in activity buffer (50 mM Tris [pH 7.4], 200 mM NaCl, 0.01% Tween 20). Bead spin-down assays were all performed for 2 minutes at 5000 g. Beads were resuspended in 1 ml of activity buffer in a 1.5-ml snap cap tube. One microgram of Fc-FGFR1 to 4 was incubated with the beads for 1 hour on a bead rotator. Control samples were incubated with 2 μg of anti-FGF antibody instead of Fc-FGFR. […] Samples were analyzed using SDS-PAGE and Western blotting.
Proteins were coated on 96-well plates (MaxiSorp; 439454, Thermo Fisher Scientific), and proteins were added to wells in 100 μl of enzyme-linked immunosorbent assay (ELISA) coating buffer (E107, Bethyl Laboratories) with a lid placed overtop and incubated at 4° C. overnight. […] Reactions were stopped with ELISA stop solution (E115, Bethyl Laboratories) and analyzed using the Synergy HI plate reader (BioTek) at 450 nm wavelength. […] As a control to remove background absorbance values, wells were coated with an equal amount of BSA to match the amount of protein coated in experimental wells and treated the same as experimental wells. […]

The test system of experiment [2] is neonatal rat ventricular myocytes. The experiment in a line: Hypertrophic growth of isolated neonatal rat ventricular myocytes (cell area). It is filed as cell-based. As to conditions: for FGF23-induced increase in the cell area in the presence of heparin: heparin 0.19 USP/ml, increasing FGF23 concentrations, 48 hours. As to the method: Neonatal rat ventricular myocytes (NRVMs) were isolated using a kit according to the manufacturer's protocol (LK003300, Worthington Biochemical Corporation), as done previously.^13,16,17 Briefly, hearts from 1- to 3-day-old Sprague Dawley rats (Envigo) were harvested and minced in calcium- and magnesium-free Hanks balanced salt solution and the tissue was digested with 50 μg/ml of trypsin at 4° C. for 20 to 24 hours. Soybean trypsin inhibitor in Hanks balanced salt solution was added, and the tissue was further digested with collagenase (in Leibovitz L-15 medium) under slow rotation (0.14 g) at 37° C. for 45 minutes. Cells were broken up by triturating the suspension 20× with a standard 10-ml plastic serological pipette. Cells were then filtered through a cell strainer (70 μm, BD Falcon). Cells were incubated at room temperature for 20 minutes and spun at 100 g for 5 minutes. The cell pellet was resuspended in plating medium (DMEM Base [10013CV, Corning], 17% M199 [12350039, Gibco], 15% FBS [26140079, Gibco], I× Pen/Strep [15140122, Gibco]). For cell tracings, NRVMs were grown in 24-well plates on glass coverslips (CLS1760012, Chemglass). Slips were precoated with laminin (23017015, Invitrogen) at 10 μg/ml for 1 hour at 37° C. dissolved in PBS. Laminin was aspirated, and cells and medium were added. Cells were counted by a hemocytometer and plated at 4×10^5 cells per well. […] After 48 hours, maintenance medium was replaced, and after another 48 hours, cells were ready for treatment, giving a total of 72 hours of plating medium and 96 hours of maintenance medium before treatment. […]
The medium was aspirated, and cultured NRVMs were fixed in 2% paraformaldehyde (P-6148, Sigma-Aldrich) and 4% sucrose dissolved in PBS for 5 minutes followed by permeabilization with 1% Triton X-100 dissolved in PBS for 10 minutes. […] The cross-sectional area of myocytes was measured on the basis of α-actinin-positive staining using ImageJ software (v1.53, National Institutes of Health). […]

For the substance heparin [reference compound], in experiment [1], the “binding of FGF21 to any of the FGFR isoforms” value is recorded as “does not mediate binding”. The “FGF23-induced increase in the cell area in the presence of heparin” value is “increased this effect at all FGF23 concentrations” in experiment [2] and “further elevated” in experiment [2] (listed as heparin). The “NRVM area, treatment by itself” value in experiment [2] (without FGF23, 48 hours) is “no effect”.

Source of the values: US20240384250A1, “FIBROBLAST GROWTH FACTOR 23 MODULATING COMPOUNDS” (THE UAB RESEARCH FOUNDATION, priority 2021, published 2024).
